# Measured values from ChEMBL document CHEMBL1151935, “Improvement of pharmacological properties of irreversible thyroid receptor coactivator binding inhibitors” (J Med Chem, 2009).
# Assay: in vitro
# Conditions: PAMPA, pH 7.4
row,SMILES,Papp [×10⁻⁶ cm/s]
1,CCCCCCSc1cc(Cl)c(C(=O)CCN2CCN(S(=O)(=O)CC)CC2)cc1Cl,20
2,CCCCCCOc1cc(Cl)c(C(=O)CCN2CC2C)c(Cl)c1 (configuration not stated),> 1
3,CCCCCCOc1ccc(C(=O)CCN(CCCC)CCCC)cc1,560
4,CCCCCCOc1cc(Cl)c(C(=O)CCN2CCOCC2)c(Cl)c1,> 1
5,CCCCCCOc1ccc(C(=O)C(CN(C)C)c2ccccc2)cc1 (configuration not stated),910
6,CCCCCCS(=O)(=O)c1cc(Cl)c(C(=O)CCN2CCN(S(=O)(=O)CC)CC2)cc1Cl,730
7,CCCCCCS(=O)(=O)c1ccc(C(=O)CCN2CCN(C(C)=O)CC2)c(Cl)c1,360
8,CCCCCCOc1ccc(C(=O)CCN(C)C)cc1C(C)(C)C,190
9,CCCCCCOc1ccc(C(=O)CCN(C)C)c(C)c1,750
10,CCCCCCOc1ccc2c(c1)CCC(CN(C)C)C2=O (configuration not stated),710
11,CCCCCCSc1ccc(C(=O)CCN2CCOCC2)c(Cl)c1Cl,170
12,CCCCCCS(=O)(=O)c1cc(Cl)c(C(=O)CCN2CCOCC2)c(Cl)c1,470
13,CCCCCCOc1ccc(C(=O)CCN(C)C)c(C(F)(F)F)c1,500
14,CCCCCCS(=O)(=O)c1cc(C)c(C(=O)CCN2CCN(C(C)=O)CC2)c(C)c1,470
15,CCCCCCOc1ccc(C(=O)CCN(C)C)c(Br)c1,80
16,CCCCCCS(=O)(=O)c1ccc(C(=O)CCN2CCNC(=O)C2)c(Cl)c1,240
17,CCCCCS(=O)(=O)Nc1ccc(C(=O)CCN(C)C)cc1,50
18,CCCCCCSc1cc(Cl)c(C(=O)CCN2CCOCC2)c(Cl)c1,10
19,CCCCCCOc1ccc(C(=O)CCN(C)C)cc1Cc1ccccc1,230
20,CCCCCCOc1cccc(C(=O)CCN(C)C)c1,830
21,CCCCCCOc1cc(Cl)c(C(=O)CCN(C)C)c(Cl)c1,700
22,CCCCCCOc1ccc(C(=O)CCN(C)C)cc1C(F)(F)F,930

row,SMILES,Papp [×10⁻⁶ cm/s]
1,CCCCCCS(=O)(=O)c1cc(Cl)c(C(=O)CCN2CCNC(=O)C2)cc1Cl,540
2,CCCCCCS(=O)(=O)c1ccc(C(=O)CCN2CCN(S(=O)(=O)CC)CC2)c(Cl)c1Cl,380
3,CCCCCCSc1cc(Cl)c(C(=O)CCN(C)C)c(Cl)c1,350
4,CCCCCCOc1ccc(C(=O)CCN(C)C)c2ccccc12,660
5,CCCCCCOc1cc(C(C)C)c(C(=O)CCN(C)C)cc1C,860
6,CCCCNC(=O)Nc1ccc(C(=O)CCN(C)C)cc1,10
7,CCCCCCS(=O)(=O)c1ccc(C(=O)CCN2CC2C)c(Cl)c1Cl (configuration not stated),440
8,CCCCCCOc1ccc(C(=O)CCNc2ccccc2)cc1,0.2
9,CCCCCCS(=O)(=O)c1cc(Cl)c(C(=O)CCN2CC2C)c(Cl)c1 (configuration not stated),980
10,CCCN1CCN(c2ccc(C(=O)CCN(C)C)cc2)CC1,320
11,CCCCCCS(=O)(=O)c1ccc(C(=O)CCN2CCOCC2)c(Cl)c1,760
12,CCCCCCS(=O)(=O)c1ccc(C(=O)CCN2CCOCC2)c(Cl)c1Cl,560
13,CCCCCCS(=O)(=O)c1cc(Cl)c(C(=O)CCN2CC2C)cc1Cl (configuration not stated),260
14,CCCCCCSc1ccc(C(=O)CCN2CCN(S(=O)(=O)CC)CC2)c(Cl)c1,740
15,CCCCCCS(=O)(=O)c1cc(Cl)c(C(=O)CCN2CCN(C(C)=O)CC2)cc1Cl,670
16,CCCCCCSc1ccc(C(=O)CCN2CC2C)c(Cl)c1 (configuration not stated),500
17,CCCCCCOc1ccc(C(=O)CCN2CC2C)c(Cl)c1 (configuration not stated),870
18,CCCCCCS(=O)(=O)c1ccc(C(=O)CCN2CCN(S(=O)(=O)CC)CC2)c(Cl)c1,300
19,CCCCCCOc1cc(Cl)c(C(=O)CCN2CCN(S(=O)(=O)CC)CC2)c(Cl)c1,860
20,CCCCCCS(=O)(=O)c1cc(Cl)c(C(=O)CCN2CCOCC2)cc1Cl,680
21,CCCCCCOc1ccc(C(=O)CCN(C)C)c(N(C)C)c1,170
22,CCCCCCSc1cc(Cl)c(C(=O)CCN2CCN(S(=O)(=O)CC)CC2)c(Cl)c1,50

row,SMILES,Papp [×10⁻⁶ cm/s]
1,CCCCCCS(=O)(=O)c1ccc(C(=O)CCN(C)C)c(Cl)c1Cl,220
2,CCCCCCOc1ccc(C(=O)CCN(C)C)cc1I,540
3,CCCCCCOc1ccc(-c2ccc(C(=O)CCN(C)C)cc2)cc1,150
4,CCCCCCOc1ccc(C(=O)CCN(C)C)cc1Br,460
5,CCCCCCOc1ccc(C(=O)CCNc2cccc(Cl)c2)cc1,2
6,CCCCCCS(=O)(=O)c1ccc(C(=O)CCN(C)C)cc1,780
7,CCCCCCSc1cc(Cl)c(C(=O)CCN2CC2C)cc1Cl (configuration not stated),140
8,CCCCCCS(=O)(=O)c1cc(Cl)c(C(=O)CCN2CCN(C(C)=O)CC2)c(Cl)c1,480
9,CCCCCCOc1ccc(C(=O)CCN(C)C)cc1OC,950
10,CCCCCCOc1ccc(C(=O)CCN(C)C)cc1-c1ccccc1,830
11,CCCCCCOc1cc(C)c(C(=O)CCN2CC2C)c(C)c1 (configuration not stated),930
12,CCCCCCSc1cc(C)c(C(=O)CCN2CC2C)c(C)c1 (configuration not stated),770
13,CCCCCCSc1ccc(C(=O)CCN(C)C)c(Cl)c1,610
14,CCCCCCOc1ccc2c(c1)OCC(CN(C)C)C2=O (configuration not stated),700
15,CCCCCCOc1ccc(C(=O)CCN(C)C)c(I)c1,270
16,CCCCCCOc1ccc(C(=O)CCN2CCOCC2)c(Cl)c1Cl,930
17,CCCCCCOc1ccc(C(=O)CCN2CCN(S(=O)(=O)CC)CC2)c(Cl)c1Cl,> 1
18,CCCCCCS(=O)(=O)c1cc(C)c(C(=O)CCN2CCNC(=O)C2)c(C)c1,480
19,CCCCCCSc1ccc(C(=O)CCN2CC2C)c(Cl)c1Cl (configuration not stated),70
20,CCCCCCS(=O)(=O)c1cc(Cl)c(C(=O)CCN(C)C)c(Cl)c1,170
21,CCCCCCSc1cc(C)c(C(=O)CCN2CCN(S(=O)(=O)CC)CC2)c(C)c1,160
22,CCCCCCSc1ccc(C(=O)CCN2CCN(S(=O)(=O)CC)CC2)c(Cl)c1Cl,30

row,SMILES,Papp [×10⁻⁶ cm/s]
1,CCCCCCSc1cc(Cl)c(C(=O)CCN2CCNC(=O)C2)cc1Cl,810
2,CCCCCCS(=O)(=O)c1ccc(C(=O)CCN(C)C)c(Cl)c1,380
3,CCN1CCC(Cc2ccc(C(=O)CCN(C)C)cc2)CC1,140
4,CCCCCCOc1ccc2c(c1)CC(CN(C)C)C2=O (configuration not stated),230
5,CCCCCCNC(=O)c1ccc(C(=O)CCN(C)C)cc1,770
6,CCCCCCOc1c(C)cc(C(=O)CCN(C)C)cc1C,730
7,CCCCCCS(=O)(=O)c1cc(Cl)c(C(=O)CCN(C)C)cc1Cl,90
8,CCCCCCOc1ccc(C(=O)CCN(C)C)cc1S(C)(=O)=O,730
9,CCCCCCOc1cc(Cl)c(C(=O)CCN2CC2C)cc1Cl (configuration not stated),810
10,CCOCCOc1ccc(C(=O)CCN(C)C)cc1,160
11,CCCCCCS(=O)(=O)c1cc(Cl)c(C(=O)CCN2CCNC(=O)C2)c(Cl)c1,430
12,CCCCCCS(=O)(=O)c1ccc(C(=O)CCN2CC2C)c(Cl)c1 (configuration not stated),160
13,CCCCCCS(=O)(=O)c1ccc(C(=O)CCN2CCN(C(C)=O)CC2)c(Cl)c1Cl,770
14,CCCCCCSc1cc(Cl)c(C(=O)CCN(C)C)cc1Cl,330
15,CCCCCCOc1ccc(C(=O)CCN2CC2C)c(Cl)c1Cl (configuration not stated),370
16,CCCCCCOc1ccc(C(=O)CCN(C)C)cc1F,700
17,CCCCCCOc1ccc(C(=O)CCN(C)C)c(S(C)(=O)=O)c1,850
18,CCCCCC(=O)Nc1ccc(C(=O)CCN(C)C)cc1,560
19,CCCCCCOc1cc(C)c(C(=O)CCN(C)C)c(C)c1,650
20,CCCCCCSc1cc(Cl)c(C(=O)CCN2CC2C)c(Cl)c1 (configuration not stated),190
21,CCCCCCSc1ccc(C(=O)CCN(C)C)c(Cl)c1Cl,140
